Measured values as given in patent US20260199296A1, “AGENT FOR PREVENTING OR AMELIORATING ITCH” (KAO CORPORATION, priority 2022, published 2026).

What was measured:
AD model mice (NC/Nga) [1] = assay: Amelioration of pruritus in AD model mice by C3a receptor antagonist (mite allergen ointment-induced); type: in vivo, mouse; settings: 0.5 mg/mL, 200 μL subcutaneously, three times a week; measured for 3 hours after last administration; FIG. 7
Protocol: Seven-week-old female NC/Nga mice were used. Preparation of AD model mice: The back of the neck was shaved, and 100 mg of an ointment containing mite allergen: Biostir AD (Biostir Inc.) was applied to the back of the neck and auricular region under isoflurane anesthesia for initial sensitization. Four days after the first application of the ointment containing mite allergen, 150 μL of 4% (w/v) SDS solution and 100 mg of ointment containing mite allergen were applied to the back of the neck and auricular region under isoflurane anesthesia. Thereafter, the same procedure was performed four times at a frequency of once every 3 to 4 days to induce AD-like dermatitis.
The compound 1, whose C3a receptor antagonism was confirmed in Example 1 above, was used as a C3a receptor antagonist. The compound 1 was dissolved in saline containing 20% polyethylene glycol 400, of which 200 μL was administered subcutaneously to the back of the neck. The control group was administered the same amount of only the above solvent. The concentration of the C3a receptor antagonist solution was set at 0.5 mg/mL. […]
Four days after the last application of the ointment containing mite allergen, the scratching behavior was measured for 3 hours after the last administration of the sample. […]

[2] = system: AEW model mice (C57BL/6J); assay: Amelioration of pruritus in AEW model mice by C3a receptor antagonist; type: in vivo, mouse; settings: 0.5 mg/mL, 200 μL subcutaneously, once daily for 8 days; measured for 3 hours after last administration; FIG. 8
Description: The animals used were male C57BL/6J mice. Preparation of AEW model: The back of the neck was shaved, and absorbent cotton soaked with a 1:1 (v/v) mixture of acetone and diethyl ether was applied and allowed to stand for 15 seconds. Immediately thereafter, absorbent cotton soaked with water was applied for 30 seconds. This treatment was repeated twice/day (morning and evening) for 7 days.
The compound 1, whose C3a receptor antagonism was confirmed in Example 1 above, was used as a C3a receptor antagonist. The compound 1 was dissolved in saline containing 20% polyethylene glycol 400, of which 200 μL was administered subcutaneously to the back of the neck. The control group was administered the same amount of only the above solvent. The concentration of the C3a receptor antagonist solution was set at 0.5 mg/mL. Sample administration started after the first AEW treatment and was performed at a frequency of once daily for 8 days.
Sixteen hours after the last AEW treatment, the scratching behavior was measured for 3 hours after the last administration of the sample. MicroAct (Neuroscience) was used to measure the scratching behavior.

human C3a receptor = target: T1, human C3a receptor (Homo sapiens, UniProt Q16581); assay: Ca2+-flux assay in HEK293 cells expressing human C3a receptor and GNA16; type: cell-based; settings: ligands mouse TLQP-21 1 μM or human C3a recombinant protein 300 nM, Fluo-4, HEK293, FIG. 1
T1 construct: host or cells: HEK293
T1 sequence (Q16581 1-482): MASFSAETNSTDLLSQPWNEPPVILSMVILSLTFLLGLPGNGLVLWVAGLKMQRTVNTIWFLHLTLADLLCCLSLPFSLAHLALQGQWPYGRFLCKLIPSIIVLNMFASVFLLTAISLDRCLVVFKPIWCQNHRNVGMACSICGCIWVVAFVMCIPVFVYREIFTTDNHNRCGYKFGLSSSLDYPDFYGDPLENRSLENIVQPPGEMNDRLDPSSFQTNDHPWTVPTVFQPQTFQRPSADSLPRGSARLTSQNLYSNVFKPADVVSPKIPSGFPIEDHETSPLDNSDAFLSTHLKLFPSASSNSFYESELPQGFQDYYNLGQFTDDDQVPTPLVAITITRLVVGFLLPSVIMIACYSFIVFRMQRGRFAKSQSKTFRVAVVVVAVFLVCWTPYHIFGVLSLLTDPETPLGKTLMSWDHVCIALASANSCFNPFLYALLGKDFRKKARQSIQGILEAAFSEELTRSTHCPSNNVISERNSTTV
Description: Mouse TLQP-21 (Tocris Bioscience, sequence: TLOPPASSRRRHFHHALPPAR, the same applies hereinafter) and human C3a recombinant protein (R&D systems) were used. The solvent was HBSS (Gibco).
The compound 1 (L-arginine, N2-[[5-(diphenylmethyl)-2-thienyl]carbonyl]) synthesized in accordance with a previous report (Rowley, J. A. et al. Journal of Medicinal Chemistry, 2020; 63 (2): 529-541) and ozanimod (Cayman Chemical) were used as C3a receptor antagonists. In the following evaluation, the compound 1 and ozanimod were dissolved in DMSO and diluted with HBSS as appropriate.
Human Embryonic Kidney cells 293 (HEK293) were used, into which the expression vectors necessary for evaluation were introduced according to the following. […]
The cells for evaluating C3a receptor response described above were seeded in a BioCoat (Registered Trademark) Poly-D-Lysine 96-well Black Flat Bottom Microplate (CORNING). […] After 15 minutes, C3a receptor ligand solution (mouse TLQP-21 solution or human C3a recombinant protein solution) was added for C3a receptor stimulation, and the Ca^2+ influx associated with the stimulation was measured over time as intracellular fluorescence intensity (Ex: 480 nm, Em: 540 nm). The value obtained by subtracting the measured value when HBSS was added instead of the C3a receptor ligand solution (blank) was used as the measured value. […]

[3] = system: ANIT model mice (C57BL/6J); assay: Amelioration of pruritus in model mice of pruritus associated with cholestasis (ANIT model) by ozanimod; type: in vivo, mouse; settings: oral, 3 mg/mL suspension at 10 mL/kg; measurement time 22 hours; FIG. 10
Protocol: Shaved male C57BL/6J mice were used. To eight-week-old C57BL/6J mice, α-naphthyl isothiocyanate (ANIT) dissolved in olive oil (FUJIFILM Wako Pure Chemical) was orally administered once daily for 10 days with an oral gavage needle for mice and a disposable syringe. Before administration, body weight was measured to ensure administration at 25 mg/10 mL/kg (ANIT model).
(§1) Ozanimod (Selleck Biotech) was used. Carboxymethyl cellulose (Maruishi Pharmaceutical Co., Ltd.) prepared at 0.5% with water for injection was used as a solvent. The weighed ozanimod was lightly crushed using an agate pestle, and then the solvent dropwise addition and mixing were repeated to obtain a suspension (3 mg/mL). The preparation was done on the day of administration and stored at room temperature until administration.
The dosage (10 mL/kg) was calculated by measuring body weight, and the prepared evaluation samples were administered orally with an oral gavage needle for mice and a disposable syringe.
(§2) MicroAct (Neuroscience) was used to measure the scratching behavior. […] Measurements were made on the day before (before administration) and on the day of administration (after administration) of ozanimod, and the antipruritic effect of ozanimod was evaluated by comparing the number of scratching behaviors before and after administration.

AD model mice (NC/Nga) [4] = assay: Amelioration of pruritus in AD model mice by ozanimod (fur mite-parasitized NC/Nga); type: in vivo, mouse; settings: oral, 3 mg/mL suspension at 10 ml/kg; measurement time 22 hours; FIG. 9
Protocol: NC/Nga mice were parasitized with mouse fur mites (M. musculi) to spontaneously generate dermatitis, and were used as an AD model. Fourteen-week-old males having developed dermatitis were used. After one week of acclimation, the back of their necks was shaved and their scratching behavior was measured. The mice were divided into two groups of eight mice each to ensure an equal number of scratching behaviors.
as §1
The dosage (10 ml/kg) was calculated by measuring body weight, and the prepared evaluation samples were administered orally with an oral gavage needle for mice and a disposable syringe.
as §2

| SMILES | scratching behavior compared to AD model mice administered with solvent alone (AD model mice (NC/Nga) [1]) | scratching behavior compared to AEW model mice administered with solvent alone [2] | fluorescence intensity due to C3a receptor stimulation by C3a receptor ligands (integrated value vs control = 100%) (human C3a receptor; compound at 1 μM) | scratching behavior (events) after vs before administration [3] | fluorescence intensity due to C3a receptor stimulation by C3a receptor ligands (integrated value vs control = 100%) (human C3a receptor; compound at 10 μM) | scratching behavior (events) after vs before administration (AD model mice (NC/Nga) [4]) |
| --- | --- | --- | --- | --- | --- | --- |
| N=C(N)NCCC[C@H](NC(=O)c1ccc(C(c2ccccc2)c2ccccc2)s1)C(=O)O [compound 1, L-arginine, N2-[[5-(diphenylmethyl)-2-thienyl]carbonyl]] | significant decrease | significant decrease | suppressed | – | – | – |
| CC(C)Oc1ccc(-c2nc(-c3cccc4c3CCC4NCCO)no2)cc1C#N (stereo not drawn) [ozanimod, 5-[3-[1-(2-hydroxyethylamino)-2,3-dihydro-1H-inden-4-yl]-1,2,4-oxadiazol-5-yl]-2-isopropoxybenzonitrile] | – | – | – | significant decrease | suppressed | significant decrease |
